# Source: EP0728012B1, “NOVEL GnRH ANALOGUES WITH ANTITUMOUR EFFECTS AND PHARMACEUTICAL COMPOSITIONS THEREOF” (Lovas, Sandor, priority 1994, dated 1996)
# Tests used:
# MCF-7 [1] = type: cell-based, human; details: MCF-7 ER-positive; after 6 days' treatment; dose not stated
# Experimental: (§1) After being treated with trypsin, 300.000 each of MCF-7, MDA-MB-231, PC3 or Ishikawa cells, respectively, were passed into Petri dishes of 10 cm in diameter. Starting from the day following the setting, the cells were treated with 1-50 µM of the GnRH analogue in the exponential growth phase. During the experiment lasting for 5 days, the cells were treated in every two days with the peptide hormone dissolved in the nutrient medium, then the cell count was determined on the sixth day.
# MDA-MB-231 [2] = type: cell-based, human; details: MDA-MB-231 ER-negative; after 6 days' treatment; dose not stated
# Experimental: as §1
# human tumour cell lines [3] = type: cell-based; details: 30 µM
# Experimental: as §1
# Ishikawa = assay: Inhibition of colony formation by GnRH analogues (dose-survival, Example 48); type: cell-based, human; details: 50 µM
# Experimental: (§2) The examination gives accurate information about the cell-damaging effect of the substance tested as a function of varying doses. The treatment was carried out once; the colonies formed from the surviving cells were counted after 8 - 12 days. […] A part of the arrested cells again entered the cycle, another part of them might be destroyed (apoptosis). […] In the case of a dose-response investigation, colonies containing less than 15 cells were not counted. 300 cells were put into each Petri dishes of 3.5 cm in diameter. The treatment was once carried out 24 hours after setting, then the colonies formed were counted after 8 - 12 days. The cells were treated once after 24 hours with 1-50 µM of various GnRH analogues of Examples above or with 1 - 50 µM of GnRH-III, respectively. The percentages of inhibition obtained on MCF-7, MDA-MB-231, PC3 and Ishikawa cells, respectively, together with the dose of the active agent used are shown in Table VIII.
# MCF-7 [4] = assay: as above; type: cell-based, human; details: treated once
# Experimental: as §2
# PC3 = assay: as above; type: cell-based, human
# Experimental: as §2
# MDA-MB-231 [5] = assay: as above; type: cell-based, human
# Experimental: as §2
# human tumour cell lines [6] = assay: Inhibition of colony formation (Example 48), comparison with the control D-Trp^6-hGnRH; type: cell-based; details: data of Table VIII
# Experimental: as §2
# In these studies the D-Trp^6-hGnRH analogue (Sigma Co.) commonly used in the tumour therapy was employed as control.
Compound,inhibition (change in the cell count) (MCF-7 [1]),inhibition of cell proliferation (MDA-MB-231 [2]),proliferation-inhibiting effect (human tumour cell lines [3]),% Inhibition of the colony formation (Ishikawa) [%],% Inhibition of the colony formation (MCF-7 [4]; 10 µM) [%],% Inhibition of the colony formation (MCF-7 [4]; 50 µM) [%],% Inhibition of the colony formation (PC3; 50 µM) [%],inhibition of colony formation (PC3; within the dose range used (1-50 µM)),% Inhibition of the colony formation (MDA-MB-231 [5]; 10 µM) [%],% Inhibition of the colony formation (MDA-MB-231 [5]; 50 µM) [%],"% Inhibition of the colony formation (MDA-MB-231 [5]; 50 µM, listed as Example 32, 50 µM)",inhibitory effect compared with the control D-Trp^6-hGnRH (human tumour cell lines [6])
"[D-Ser(tBu)]^6,desGly^10-hGnRH(1-9)EA [Buserelin]",5-15%,25-30%,,,,,,,,,,
"CC(=O)NCCCC[C@H](NC(=O)[C@H](Cc1c[nH]c2ccccc12)NC(=O)[C@H](Cc1c[nH]cn1)NC(=O)[C@@H]1CCC(=O)N1)C(=O)N[C@@H](Cc1c[nH]cn1)C(=O)N[C@@H](CC(=O)O)C(=O)N[C@@H](Cc1c[nH]c2ccccc12)C(=O)N[C@@H](CCCCN)C(=O)N1CCC[C@H]1C(=O)NCC(N)=O [7. [Lys(ε-AC)]^4 GnRH-III, [Lys(î-Ac)]^4 -GnRH-III]",,,27-31%,14,40,52,0,did not influence,31,42,35-42%,exceeded the inhibitory effect of control
